The conditions of the series: male, human, in vivo, iv.

As to `CC(=O)N[C@H]1[C@H](O[C@@H]2c3ccc(c(Cl)c3)Oc3cc4cc(c3O)Oc3ccc(cc3Cl)C[C@H]3NC(=O)[C@H](N)c5ccc(O)c(c5)Oc5cc(O)cc(c5)[C@H](NC3=O)C(=O)N[C@H]4C(=O)N[C@H]3C(=O)N[C@@H]2C(=O)N[C@H](C(=O)O)c2cc(O)cc(O[C@H]4O[C@H](CO)[C@@H](O)[C@H](O)[C@@H]4O)c2-c2cc3ccc2O)O[C@H](CO)[C@@H](O)[C@@H]1O` [A3-1], the “isoform plasma concentration, median” value stood at 0.18 µg/mL.

Values taken from publication PMC10532956, “Age and Sex-Related Differences in Teicoplanine Isoform Concentrations in SARS-CoV-2 Patients” (Life, 2023).
